Laboratory results taken from patent publication US8962664B2, “Selective glycosidase inhibitors and uses thereof” (Simon Fraser University, priority 2006, dated 2015).
Values joined by “and” are separate entries in the source; they are usually repeats but may differ in a detail not shown here. Equal entries are not always repeated.

Experiments:
Assay type in all cases: in vivo, Sprague-Dawley rats
[1] = Eight-month repeat dose toxicology study in rats: general observations and organ weights
Description: (§1) The toxicological effects of repeated oral administration of (3aR,5R,6S,7R,7aR)-5-(hydroxymethyl)-2-propyl-5,6,7,7a-tetrahydro-3aH-pyrano[3,2-d]thiazole-6,7-diol (NAG-Bt) to Sprague-Dawley rats over eight months was measured. All animals were obtained from Charles-River as 5-week old healthy male Sprague-Dawley rats. Animals were given one week to acclimatize and at six weeks of age the appropriate treatment was initiated. Eight animals were fed food containing 100 mg/kg/day of NAG-Bt for eight months. Eight additional animals fed with food containing no inhibitor were used as controls. […] After four months of dosing, blood and urine samples were collected from four rats in each group.
At the end of eight months, all animals were sacrificed and their organs removed and weighed.

[2] = Eight-month repeat dose toxicology study in rats: urinalysis
Description: as §1

[3] = Eight-month repeat dose toxicology study in rats: hematology (CBC) and serum chemistry
Description: as §1

[4] = tested on: levels of O-GlcNAc modification in brain and muscle tissue; experiment: Dose-dependent elevation of rat brain and muscle O-GlcNAc levels (IV); conditions: rats, seven hours
Description: The effect of intravenous (IV) administration of (3aR,5R,6S,7R,7aR)-5-(hydroxymethyl)-2-propyl-5,6,7,7a-tetrahydro-3aH-pyrano[3,2-d]thiazole-6,7-diol (Compound 54; hereinafter referred to as NAG-Bt) on levels of O-GlcNAc modification in brain and muscle tissue in Sprague-Dawley rats was measured. Animals were obtained from Charles-River as 5-week old healthy male Sprague-Dawley rats. Animals were given one week to acclimatize and at six weeks of age the appropriate treatment was initiated. Eight animals were given intravenous tail vein injections of various concentrations of NAG-Bt or vehicle alone (PBS); doses of NAG-Bt included 0, 2, 5, 10, 25, 50, 100, and 250 mg/kg. Seven hours later animals were sacrificed and tissues were removed from animals as quickly as possible to minimize post-mortem delay. Tissues were immediately frozen in liquid nitrogen and stored at −80° C. until further use. Homogenization of the tissues was carried out by manual grinding followed by homogenization in cell lysis buffer (50 mM Tris, pH 8.0, 1 mM PMSF, 0.1% NP-40, 1 mM NAG-Bt) using a tissue homogenizer (IKA) at 4° C. Insoluble cell debris was removed by centrifugation at 17,900×g for 20 minutes at 4° C. and the resulting supernatant was stored at −20° C. until use.
Western blotting of the samples thus obtained was carried out using the α-O-GlcNAc antibody (CTD110.6; Covance) and the α-actin antibody as described previously.^106 Equal amounts of homogenized brain and muscle tissue from animals treated with NAG-Bt or vehicle alone were separated by SDS-PAGE followed by probing with the primary a-O-GlcNAc antibody and an anti-IgM-mouse IgG-HRP conjugate. […] FIGS. 1C and 1D are Western blots of samples loaded in the upper panels (FIGS. 1A and 1B) probed using anti-β-actin mAb clone AC-40 followed by an anti-mouse IgG-HRP conjugate, and reveal equivalent sample loading.

[5] = tested on: O-GlcNAc levels in cardiac tissue; experiment: Elevation of rat cardiac O-GlcNAc levels (IV); conditions: rats, IV 50 mg/kg, 0 to 20 h, Western blot
Description: The effect of intravenous (IV) administration of (3aR,5R,6S,7R,7aR)-2-(ethylamino)-5-(hydroxymethyl)-5,6,7,7a-tetrahydro-3aH-pyrano[3,2-d]thiazole-6,7-diol (Compound 25, hereinafter referred to as NAG-AE) on O-GlcNAc levels in cardiac tissue in Sprague-Dawley rats was measured. Animals were obtained from Charles-River as 5-week old healthy male Sprague-Dawley rats. Animals were given one week to acclimatize and at six weeks of age the appropriate treatment was initiated. Nine animals were given intravenous tail vein injections of 50 mg/kg NAG-AE; following injection, one animal was sacrificed at each of the following time points: 0, 1, 2, 4, 7, 10, 13, 16, and 20 h. In addition, one animal was given an injection of vehicle (PBS—pH 7.4) and sacrificed two hours later for use as a control. Tissues were removed from sacrificed animals as quickly as possible to minimize post-mortem delay. The hearts from each animal were immediately frozen in liquid nitrogen and stored at −80° C. until further use. Homogenization of the cardiac tissue was carried out by manual grinding followed by homogenization in cell lysis buffer (50 mM Tris, pH 8.0, 1 mM PMSF, 0.1% NP-40, 1 mM NAG-Bt) using a tissue homogenizer (IKA) at 4° C. Insoluble cell debris was removed by centrifugation at 17,900×g for 20 minutes at 4° C. and the resulting supernatant was stored at −20° C. until use. […]

[6] = rat, in vivo, po, 100 mg/kg/day
[7] = IV 250 mg/kg, densitometry of Western blot

CCCC1=N[C@@H]2[C@@H](O)[C@H](O)[C@@H](CO)O[C@@H]2S1 [NAG-Bt, (3aR,5R,6S,7R,7aR)-5-(hydroxymethyl)-2-propyl-5,6,7,7a-tetrahydro-3aH-pyrano[3,2-d]thiazole-6,7-diol]
body weight, food consumption, water consumption, and blood glucose levels [1, 6]: no significant differences | gross pathological abnormalities or behavioural differences [1, 6]: No gross pathological abnormalities or behavioural differences | toxicological consequences of long-term dosing ([1]; rats, oral 100 mg/kg/day, eight months): no serious toxicological consequences | Urine Bilirubin [2, 6]: neg | Urine Color [2, 6]: Yellow | Urine Crystals [2, 6]: PO4 | Urine Crystals Amount [2, 6]: Many | Urine Epith [2, 6]: neg | Urine Glucose [2, 6]: neg | Urine Gran Cast [2, 6]: neg | Urine Hyal cast [2, 6]: neg | Urine RBC Cast [2, 6]: neg | Urine Urobil [2, 6]: Norm | Urine Bacteria ([2]; rats dosed orally for 4 months at 100 mg/kg/day, individual treated rats): Mod- and neg (2×) | ALT [3, 6]: 109.3 iu/l | AST [3, 6]: 202.3 iu/l | Albumin [3, 6]: 47.8 g/L | Albumin/Globulin [3, 6]: 1.6 | Alkaline phsphatase [3, 6]: 168.3 iu/l | Anion Gap [3, 6]: 29.8 mM | Bilirubin total [3, 6]: 0.0 µM | Blood Urea Nitrogen [3, 6]: 8.9 mM | Calcium [3, 6]: 2.7 mM | Carbon Dioxide [3, 6]: 17.5 mM | Chloride [3, 6]: 104.5 mM | Cholesterol [3, 6]: 2.9 mM | Creatine Phosphokinase [3, 6]: 1324.5 iu/l | Creatinine [3, 6]: 29.0 µM | Gamma gt [3, 6]: 17.5 iu/l | Globulin [3, 6]: 30.3 g/L | Glucose [3, 6]: 2.0 mM | Hematocrit [3, 6]: 0.5 l/l | Hemoglobin [3, 6]: 169.5 g/L | Lymphs % [3, 6]: 82.3% | Mean Corp Hemoglobin [3, 6]: 16.9 pg | Mean Corp Vol. [3, 6]: 53.3 fL | Mean Platelet Vol [3, 6]: 9.3 fL | Monocytes % [3, 6]: 4.3% | Nonesterified Fatty Acids [3, 6]: 1.8 mM | Osmolality [3, 6]: 292.9 mmol/kg | Phosphorus [3, 6]: 2.2 mM | Platelet cnt [3, 6]: 561.8 10e9/L | Polys % [3, 6]: 10.8% | Potassium [3, 6]: 5.9 mM | RDW [3, 6]: 17.4 | Red cell cnt [3, 6]: 10.1 10^12/L | Sodium [3, 6]: 145.8 mM | Sorbitol Dehydrogenase [3, 6]: 22.3 iU/L | Total Protein [3, 6]: 78.0 g/L | Triglyceride [3, 6]: 2.7 mM | White cell cnt [3, 6]: 3.8 1e9/l | hematology (CBC), serum chemistry and urinalysis: differences between groups [3, 6]: no statistically significant differences | changes in ALT, AST, bilirubin or sorbitol dehydrogenase (liver toxicity) ([3]; rats, oral 100 mg/kg/day, four months): no changes | O-GlcNAc levels in brain and muscle tissue ([4]; IV 0 to 250 mg/kg, Western blot): dose-dependent elevation | elevation of O-GlcNAc levels over baseline in brain tissue [4, 7]: roughly 25 fold | elevation of O-GlcNAc levels over baseline in muscle tissue [4, 7]: roughly 10 fold | minimum IV dose required for an observable effect in brain ([4]; IV, O-GlcNAc levels): roughly 5 mg/kg

CCNC1=N[C@@H]2[C@@H](O)[C@H](O)[C@@H](CO)O[C@@H]2S1 [NAG-AE, (3aR,5R,6S,7R,7aR)-2-(ethylamino)-5-(hydroxymethyl)-5,6,7,7a-tetrahydro-3aH-pyrano[3,2-d]thiazole-6,7-diol]
O-GlcNAc levels in cardiac tissue [5]: time-dependent elevation
